Data: ChEMBL document CHEMBL6134893, “The Exploration of Indole-Based LSD1-Targeted Inhibitors for Enhanced Immune Response in Gastric Cancer via the PD-L1/PD-1 Axis” (J Med Chem, 2025)
pIC50: −log10 of the molar value. Activity calls are given as the source filed them. The rule behind the calls is not given here.

Key:
[1] = target: Lysine-specific histone demethylase 1A (Mus musculus) (UniProt Q6ZQ88); experiment: Inhibition of LSD1 in mouse MFC cells assessed as accumulation of membrane PD-L1 at 4 uM incubated for 5 days (reference value: 63.0 %); assay type: cell-based; parameters: scale not given: the % may be the effect or the level left; conditions: time 5.0 day
[2] = target: Lysine-specific histone demethylase 1A (Mus musculus) (UniProt Q6ZQ88); experiment: Inhibition of LSD1 in mouse MFC cells assessed as accumulation of membrane PD-L1 at 1 uM incubated for 5 days (reference value: 63.0 %); assay type: cell-based; parameters: scale not given: the % may be the effect or the level left; conditions: time 5.0 day
[3] = system: MKN-45; experiment: Induction of T-cell killing response in human MKN-45 cells assessed as increase in IFN-gamma secretion at 1 to 4 uM pretreated for 5 days followed by co-culturing with human PBMC-derived T cells for 4 days by ELISA; assay type: functional, cell-based; conditions: dose 1-4 µM, time 5.0 day
[4] = system: MKN-45; experiment: Induction of T-cell killing response in human MKN-45 cells assessed as decrease in cell viability pretreated for 5 days followed by co-culturing with human PBMC-derived T cells for 4 days by CCK8 assay; assay type: functional, cell-based; conditions: dose 1-4 µM, time 5.0 day
[5] = system: MFC; experiment: Antitumor activity against mouse MFC cells implanted in 615 mouse assessed as decrease Ki67 expression at 10 to 50 mg/kg, IG treated daily for 14 days by IHC analysis; assay type: functional, organism-based; conditions: dose 10-50 mg/kg, time 14.0 day
[6] = Toxicity in 615 mouse implanted with mouse MFC cells assessed as histological change in liver at 10 to 50 mg/kg, IG treated daily for 14 days by H and E staining based analysis; assay type: organism-based; conditions: in vivo, po, 336 h, dose 10-50 mg/kg, time 14 day
[7] = system: Mus musculus; experiment: In vivo induction of T-cell response in mouse MFC cells implanted in 615 mouse assessed as increase in IFN-gamma mRNA level at 10 to 50 mg/kg, IG treated daily for 14 days by PCR analysis; assay type: functional, organism-based; conditions: dose 10-50 mg/kg, time 14.0 day
[8] = system: MKN-45; experiment: Induction of T-cell killing response in human MKN-45 cells harboring LSD1-KO assessed as decrease in cell viability at 1 to 4 uM pretreated for 5 days followed by co-culturing with human PBMC-derived T cells for 4 days by CCK8 assay; assay type: functional, cell-based; conditions: dose 1-4 µM, time 5.0 day
[9] = system: MFC; experiment: Antitumor activity against mouse MFC cells implanted in 615 mouse assessed as decrease PD-L1 expression treated intragastrically daily for 14 days by Western blot analysis; assay type: functional, cell-based; conditions: dose 10-50 mg/kg, route ig, time 14.0 day
[10] = target: T1, Lysine-specific histone demethylase 1A (Homo sapiens, UniProt O60341); experiment: Inhibition of LSD1 in human MKN-45 cells assessed as accumulation of membrane PD-L1 at 4 uM incubated for 5 days (reference value: 58.4 %); assay type: cell-based; parameters: scale not given: the % may be the effect or the level left; conditions: time 5.0 day
[11] = target: T1, Lysine-specific histone demethylase 1A; experiment: Inhibition of LSD1 in human MKN-45 cells assessed as reduction in PD-L1 level incubated for 5 days by Western blot analysis; assay type: cell-based; conditions: dose 1-4 µM, time 5.0 day
[12] = Toxicity in 615 mouse implanted with mouse MFC cells assessed as histological change in spleen at 10 to 50 mg/kg, IG treated daily for 14 days by H and E staining based analysis; assay type: organism-based; conditions: in vivo, po, 336 h, dose 10-50 mg/kg, time 14 day
[13] = target: Lysine-specific histone demethylase 1A (Mus musculus) (UniProt Q6ZQ88); experiment: Inhibition of LSD1 in mouse MFC cells assessed as accumulation of membrane PD-L1 at 2 uM incubated for 5 days; assay type: cell-based; parameters: scale not given: the % may be the effect or the level left; conditions: time 5.0 day
[14] = system: Mus musculus; experiment: In vivo induction of T-cell response in mouse MFC cells implanted in 615 mouse assessed as increase in IL-2 mRNA level at 10 to 50 mg/kg, IG treated daily for 14 days by PCR analysis; assay type: functional, organism-based; conditions: dose 10-50 mg/kg, time 14.0 day
[15] = system: MKN-45; experiment: Effect on H3K4me1 demethylation in human MKN-45 cells harboring LSD1-KO at 1 to 4 uM incubated for 5 days by Western blot analysis; assay type: functional, cell-based; conditions: dose 1-4 µM, time 5.0 day
[16] = target: T1, Lysine-specific histone demethylase 1A; experiment: Inhibition of recombinant LSD1 (unknown origin) extracted from Escherichia coli BL21 (DE3) using H3K4me2 peptide as substrate in presence of […] by Amplex Red assay
[17] = target: T1, Lysine-specific histone demethylase 1A; experiment: Inhibition of LSD1 in human MKN-45 cells assessed as decrease in demethylation of H3K4me1 incubated for 5 days by Western blot analysis; assay type: cell-based; conditions: dose 1-4 µM, time 5.0 day
[18] = target: T1, Lysine-specific histone demethylase 1A; experiment: Inhibition of LSD1 in human MKN-45 cells assessed as accumulation of membrane PD-L1 at 1 uM incubated for 5 days (reference value: 58.4 %); assay type: cell-based; parameters: scale not given: the % may be the effect or the level left; conditions: time 5.0 day
[19] = system: MFC; experiment: Induction of T-cell killing response in mouse MFC cells assessed as increase in IFN-gamma secretion at 1 to 4 uM pretreated for 5 days followed by co-culturing with human PBMC-derived T cells for 4 days by ELISA; assay type: functional, cell-based; conditions: dose 1-4 µM, time 5.0 day
[20] = target: T1, Lysine-specific histone demethylase 1A; experiment: Inhibition of LSD1 in human MKN-45 cells; assay type: cell-based
[21] = system: MKN-45; experiment: Induction of T-cell killing response in human MKN-45 cells assessed as increase in IL-2 secretion at 1 to 4 uM pretreated for 5 days followed by co-culturing with human PBMC-derived T cells for 4 days by ELISA; assay type: functional, cell-based; conditions: dose 1-4 µM, time 5.0 day
[22] = system: MKN-45; experiment: Effect on H3K4me2 demethylation in human MKN-45 cells harboring LSD1-KO at 1 to 4 uM incubated for 5 days by Western blot analysis; assay type: functional, cell-based; conditions: dose 1-4 µM, time 5.0 day
[23] = system: MKN-45; experiment: Effect on PD-L1 expression in human MKN-45 cells harboring LSD1-KO at 1 to 4 uM incubated for 5 days by Western blot analysis; assay type: functional, cell-based; conditions: dose 1-4 µM, time 5.0 day
[24] = target: T1, Lysine-specific histone demethylase 1A; experiment: Inhibition of LSD1 in human MKN-45 cells assessed as decrease in demethylation of H3K4me2 incubated for 5 days by Western blot analysis; assay type: cell-based; conditions: dose 1-4 µM, time 5.0 day
[25] = system: MKN-45; experiment: Inhibition of cell invasion in human MKN-45 cells at 1 to 4 uM incubated for 2 days by crystal violet staining based transwell assay; assay type: functional; conditions: dose 1-4 µM, time 2.0 day
[26] = Toxicity in 615 mouse implanted with mouse MFC cells assessed as body weight change at 10 to 50 mg/kg, IG treated daily for 14 days; assay type: organism-based; conditions: in vivo, po, 336 h, dose 10-50 mg/kg, time 14 day
[27] = system: MFC; experiment: In vivo induction of T-cell infiltration in mouse MFC cells implanted in 615 mouse assessed as increase in CD3+ CD8+ T cells at 50 mg/kg, IG treated daily for 14 days by flow cytometry (reference value: 2.79 %); assay type: functional; conditions: time 14 day
[28] = Toxicity in 615 mouse implanted with mouse MFC cells assessed as histological change in kidney at 10 to 50 mg/kg, IG treated daily for 14 days by H and E staining based analysis; assay type: organism-based; conditions: in vivo, po, 336 h, dose 10-50 mg/kg, time 14 day
[29] = system: MFC; experiment: In vivo induction of T-cell infiltration in mouse MFC cells implanted in 615 mouse assessed as increase in CD3+ CD8+ T cells at 10 mg/kg, IG treated daily for 14 days by flow cytometry (reference value: 2.79 %); assay type: functional; conditions: time 14 day
[30] = system: MKN-45; experiment: Inhibition of cell migration in human MKN-45 cells at 1 to 4 uM incubated up to 48 hrs by wound healing assay; assay type: functional, cell-based; conditions: dose 1-4 µM
[31] = Toxicity in 615 mouse implanted with mouse MFC cells assessed as histological change in lung at 10 to 50 mg/kg, IG treated daily for 14 days by H and E staining based analysis; assay type: organism-based; conditions: in vivo, po, 336 h, dose 10-50 mg/kg, time 14 day
[32] = system: MKN-45; experiment: Effect on H3K4me3 demethylation in human MKN-45 cells at 1 to 4 uM incubated for 5 days by Western blot analysis; assay type: functional, cell-based; conditions: dose 1-4 µM, time 5.0 day
[33] = target: Lysine-specific histone demethylase 1A (Mus musculus) (UniProt Q6ZQ88); experiment: Inhibition of LSD1 in mouse MFC cells assessed as reduction in PD-L1 level incubated for 5 days by Western blot analysis; assay type: cell-based; conditions: time 5.0 day
[34] = target: T1, Lysine-specific histone demethylase 1A; experiment: Induction of thermal stabilization of LSD1 in human MKN-45 cells incubated for 5 days followed by heat exposure at 40 to 55 degreeC by CETSA; assay type: cell-based; conditions: time 5.0 day
[35] = system: MFC; experiment: In vivo induction of T-cell infiltration in mouse MFC cells implanted in 615 mouse assessed as increase in CD3+ CD8+ T cells at 25 mg/kg, IG treated daily for 14 days by flow cytometry (reference value: 2.79 %); assay type: functional; conditions: time 14 day
[36] = system: MFC; experiment: Antitumor activity against mouse MFC cells implanted in 615 mouse assessed as decrease in tumor weight at 10 to 50 mg/kg, IG treated daily for 14 days; assay type: functional, organism-based; conditions: dose 10-50 mg/kg, time 14.0 day
[37] = system: MFC; experiment: Induction of T-cell killing response in mouse MFC cells assessed as decrease in cell viability at 1 to 4 uM pretreated for 5 days followed by co-culturing with human PBMC-derived T cells for 4 days by CCK8 assay; assay type: functional, cell-based; conditions: dose 1-4 µM, time 5.0 day
[38] = system: MFC; experiment: Antitumor activity against mouse MFC cells implanted in 615 mouse assessed as tumor growth suppression treated intragastrically daily for 14 days; assay type: functional, cell-based; conditions: dose 10-50 mg/kg, route ig, time 14.0 day
[39] = Toxicity in 615 mouse implanted with mouse MFC cells assessed as histological change in heart at 10 to 50 mg/kg, IG treated daily for 14 days by H and E staining based analysis; assay type: organism-based; conditions: in vivo, po, 336 h, dose 10-50 mg/kg, time 14 day
[40] = target: Programmed cell death protein 1/Programmed cell death 1 ligand 1 (Homo sapiens) (UniProt Q15116+Q9NZQ7); experiment: Inhibition of PD-1/PD-L1 interaction in human MKN-45 cells pretreated for 5 days followed by PD-1-Fc addition by DAPI staining based confocal microscopy; assay type: cell-based; conditions: dose 1-4 µM, time 5.0 day
[41] = target: T1, Lysine-specific histone demethylase 1A; experiment: Inhibition of LSD1 in human MKN-45 cells assessed as accumulation of membrane PD-L1 at 2 uM incubated for 5 days; assay type: cell-based; parameters: scale not given: the % may be the effect or the level left; conditions: time 5.0 day

Activity [1]: 16%
Activity [2]: 59.7%
Activity [10]: 39.1%
inhibition [11]: Dose-dependent-effect
Activity [13]: 45.6%
pIC50 [16]: 7.10
inhibition [17]: Dose-dependent-effect
Activity [18]: 49.5%
pIC50 [20]: 7.10
inhibition [24]: Dose-dependent-effect
inhibition [33]: Dose-dependent-effect
Activity [34]: Active
Activity [41]: 47.3%
SMILES: C=C1C(=O)OCC1C(O)c1cn(S(=O)(=O)c2ccc(N(C)C)c([N+](=O)[O-])c2)c2ccc(Cl)cc12 (stereo unspecified)
Activity [3]: Active
Activity [4]: Dose-dependent-effect
Activity [5]: Active
Activity [6]: Non-toxic
Activity [7]: Active
Activity [8]: inactive
Activity [9]: Dose-dependent-effect
Activity [12]: Non-toxic
Activity [14]: Active
Activity [15]: No effect
Activity [19]: Active
Activity [21]: Active
Activity [22]: No effect
Activity [23]: No effect
inhibition [25]: Active; Effect Was Better Than Ory-1001
Activity [26]: Non-toxic
Activity [27]: 16.6%
Activity [28]: Non-toxic
Activity [29]: 4.92%
inhibition [30]: Active; Effect Was Better Than Ory-1001
Activity [31]: Non-toxic
Activity [32]: No effect
Activity [35]: 6.46%
Activity [36]: Active
Activity [37]: Active
Activity [38]: Dose-dependent-effect
Activity [39]: Non-toxic
inhibition [40]: Dose-dependent-effect
